From US12435060B2, “Acylamino bridged heterocyclic compound, and composition and application thereof” (BEIJING SCITECH-MQ PHARMACEUTICALS LIMITED, priority 2019, dated 2025)

What follows are compounds tested on HT29 cells (assay: Inhibition of cell necrosis (CCK8 method), induced programmed necrosis of HT29 cells). Details: Homo sapiens, HT-29; rescue from necrosis induced by TNF-α 20 ng/mL, AT-406 1 μM, Z-VAD-FMK 20 μM; 16-20 hours; CCK-8, OD 450 nm.
Assay type: cell-based
Procedure: Assay Example 2. Assay Method for Compounds Inhibiting Cell Necrosis (CCK8 Method)
In this assay example 2, under the condition of inducing programmed cell necrosis, different concentrations of the test compounds were added to test the IC50 of the rescue effect of the test compounds on the programmed necrosis.
• Compounds: Dissolved in DMSO to make a 10 mM solution; • TNF-α: The initial concentration was 100 μg/mL; • Z-VAD-FMK: Dissolved in DMSO to make a 10 mM solution; • AT-406: Dissolved in DMSO to make a 10 mM solution. I. Experimental Steps • 1) Compound dilution: All test compounds were dissolved in DMSO to prepare a 10 mM stock solution, and the first concentration gradient dilution of the test compounds was completed in DMSO. The gradient dilution factor was 4 times and 9 concentration gradients were made; A 40-fold overall dilution of all compounds was completed in the cell culture medium, and the resulting compound was 10× compound, which will be added to the wells of the 96-well plate containing cells, so that the final cell culture medium was 1× the designed final concentration. The general drug design is 9 concentration gradients, of which the highest final concentration is 25000 nM, the lowest concentration after 4-fold dilution of 9 concentrations is 0.38 nM, and the final concentration of DMSO in all wells is 0.25%. The compound dilution process is shown in FIG. 3. • 2) HT 29 cells in good growth condition were selected, trypsinized, the cells was collected by centrifugation, resuspended in McCOY's 5A complete medium (containing 10% FBS) and counted, and the number of cells and survival rate were recorded. • 3) Cells were inoculated to the 60 wells in the middle of the 96-well culture plate at a density of 12000 cells/80 μL/well, surrounding wells were filled with sterile water, and incubated overnight. • 4) 10 μL of the 10× compound diluted with the medium was added to the assay wells, 10 μL of McCOY's 5A complete medium containing 2.5% DMSO was added to the inducer-free wells and the control wells, mixed and shaked, and incubated for 30 minutes. • 5) Then 10 μL of inducer mixture (TNF-α, AT-406, Z-VAD-FMK with the final concentration of 20 ng/mL, 1 μM, 20 μM) was added into the assay wells and control wells. 10 μL McCOY's 5A complete medium was added to wells without inducer. Cells were cultured in an incubator with 5% CO2, at 37° C. • 6) After culturing for 16-20 hours, 10 μL of CCK-8 reagent was added to each well, and incubated for about 2 hours; • 7) The OD value was read at 450 nm on the multi-function plate reader. • 8) Data processing: Inhibition rate of necrosis (%)=100*(X−B)/(A−B) • A: The OD values of the wells without inducer (containing cells, CCK-8, without compound and inducer); • […]: OD values of assay wells (containing cells, CCK-8, compound, inducer); • B: OD values of control wells (containing cells, CCK-8, inducer, without compound). Then the value were imported into Graphpad Prism5 software for curve fitting and the IC50 values were calculated.
Compound `Cc1ccc(OC2CCOCC2)cc1-c1ccnc(NC(=O)c2nnc(Cc3ccccc3)[nH]2)c1` [Example 65, 5-benzyl-N-(4-(2-methyl-5-((tetrahydro-2H-pyran-4-yl)oxy)phenyl)pyridin-2-yl)-4H-1,2,4-triazole-3-carboxamide] has an IC50 of at most 100 nM.
`COc1ccc(C)c(-c2ccnc(NC(=O)c3nnc(Cc4ccccc4)[nH]3)c2)c1` [Example 101, 5-benzyl-N-(4-(5-methoxy-2-methylphenyl)pyridin-2-yl)-4H-1,2,4-triazole-3-carboxamide] showed an IC50 of 100 to 1000 nM.
`Cc1ccc(OCCCC(C)(C)O)cc1-c1ccnc(NC(=O)c2nnc(Cc3cc(Cl)ccc3F)[nH]2)c1` [Example 204, 5-(5-chloro-2-fluorobenzyl)-N-(4-(5-((4-hydroxy-4-methylpentyl)oxy)-2-methylphenyl)pyridin-2-yl)-4H-1,2,4-triazole-3-carboxamide] showed an IC50 of at most 100 nM.
Work on `Cc1ccc(OCCCC(C)(C)O)cc1-c1ccnc(NC(=O)c2nnc(Cc3cccc(C#N)c3)[nH]2)c1` [Example 187, 5-(3-cyanobenzyl)-N-(4-(5-((4-hydroxy-4-methylpentyl)oxy)-2-methylphenyl)pyridin-2-yl)-4H-1,2,4-triazole-3-carboxamide] yielded an IC50 of at most 100 nM.
With `CC(C)(O)CCCOc1ccc(Cl)c(-c2ccnc(NC(=O)c3nnc(Cc4ccc(F)c(F)c4)[nH]3)c2)c1` [Example 339, N-(4-(2-chloro-5-((4-hydroxy-4-methylpentyl)oxy)phenyl)pyridin-2-yl)-5-(3,4-difluorobenzyl)-4H-1,2,4-triazole-3-carboxamide] the IC50 was 100 to 1000 nM.
In the case of `Cc1ccc(CCCO)cc1-c1ccnc(NC(=O)c2nnc(Cc3ccccc3)[nH]2)c1` [Example 483, 5-benzyl-N-(4-(5-(3-hydroxylpropyl)-2-methylphenyl)pyridin-2-yl)-4H-1,2,4-triazole-3-carboxamide], the IC50 is reported as 100 to 1000 nM.
Work on `CCOCCOc1ccc(Cl)c(-c2ccnc(NC(=O)c3nnc(Cc4ccccc4F)[nH]3)c2)c1` [Example 384, 5-(2-fluorobenzyl)-N-(4-(2-chloro-5-(2-ethoxyethoxy)phenyl)pyridin-2-yl)-4H-1,2,4-triazole-3-carboxamide] yielded an IC50 of at most 100 nM.
`CCC(O)(CC)CCCOc1ccc(Cl)c(-c2ccnc(NC(=O)c3nnc(Cc4ccccc4)[nH]3)c2)c1` [Example 359, 5-benzyl-N-(4-(2-chloro-5-((4-ethyl-4-hydroxyhexyl)oxy)phenyl)pyridin-2-yl)-4H-1,2,4-triazole-3-carboxamide] was tested, and the IC50 was at most 100 nM.
`CC(C)(O)CCCOc1ccc(Cl)c(-c2ccnc(NC(=O)c3nnc(Cc4ccccc4)[nH]3)c2)c1` [Example 337, 5-benzyl-N-(4-(5-((4-hydroxy-4-methylpentyl)oxy)-2-chlorophenyl)pyridin-2-yl)-4H-1,2,4-triazole-3-carboxamide] showed an IC50 of at most 100 nM.
`CC(C)(O)CCCOc1ccc(F)c(-c2cc(NC(=O)c3nnc(Cc4ccccc4F)[nH]3)ncc2F)c1` [Example 318, N-(5-fluoro-4-(2-fluoro-5-((4-hydroxy-4-methylpentyl)oxy)phenyl)pyridin-2-yl)-5-(2-fluorobenzyl)-4H-1,2,4-triazole-3-carboxamide] showed an IC50 of at most 100 nM.
Compound `COc1ccc(C2CC2)cc1-c1ccnc(NC(=O)c2nnc(Cc3ccccc3)[nH]2)c1` [Example 46, 5-benzyl-N-(4-(5-cyclopropyl-2-methoxyphenyl)pyridin-2-yl)-4H-1,2,4-triazole-3-carboxamide] has an IC50 of 1000 to 10000 nM.
Compound `Cc1ccc(OCCCOC2CCC2)cc1-c1ccnc(NC(=O)c2nnc(Cc3ccccc3)[nH]2)c1` [Example 81, 5-benzyl-N-(4-(5-(3-cyclobutoxypropoxy)-2-methylphenyl)pyridin-2-yl)-4H-1,2,4-triazole-3-carboxamide] has an IC50 of at most 100 nM.
`Cc1ccc(OCCCC(C)(C)O)cc1-c1ccnc(NC(=O)c2nnc(Cc3cc(F)cc(Cl)c3)[nH]2)c1` [Example 205, 5-(5-chloro-3-fluorobenzyl)-N-(4-(5-((4-hydroxy-4-methylpentyl)oxy)-2-methylphenyl)pyridin-2-yl)-4H-1,2,4-triazole-3-carboxamide] showed an IC50 of 100 to 1000 nM.
Work on `CC(C)(C)OCCOc1ccc(C(F)(F)F)c(-c2ccnc(NC(=O)c3nnc(CC4CCCC4)[nH]3)c2)c1` [Example 293, 5-(cyclopentylmethyl)-N-(4-(5-(2-(tert-butoxy)ethoxy)-2-(trifluoromethyl)phenyl)pyridin-2-yl)-4H-1,2,4-triazole-3-carboxamide] yielded an IC50 of at most 100 nM.
`O=C(Nc1cc(-c2cc(OCCC3CCOCC3)ccc2C(F)(F)F)ncn1)c1nnc(CC2CCCC2)[nH]1` [Example 460, 5-(cyclopentylmethyl)-N-(6-(5-(2-(tetrahydro-2H-pyran-4-yl)ethoxy)-2-(trifluoromethyl)phenyl)pyrimidin-4-yl)-4H-1,2,4-triazole-3-carboxamide] showed an IC50 of at most 100 nM.
With `Cc1ccc(OCCCC2(O)CCCC2)cc1-c1ccnc(NC(=O)c2nnc(Cc3ccccc3)[nH]2)c1` [Example 163, 5-benzyl-N-(4-(5-(3-(1-hydroxycyclopentyl)propoxy)-2-methylphenyl)pyridin-2-yl)-4H-1,2,4-triazole-3-carboxamide] the IC50 was at most 100 nM.
In the case of `O=C(Nc1cc(-c2cc(OCCCCO)ccc2C(F)(F)F)ccn1)c1nnc(Cc2ccccc2)[nH]1` [Example 272, 5-benzyl-N-(4-(5-(4-hydroxybutoxy)-2-(trifluoromethyl)phenyl)pyridin-2-yl)-4H-1,2,4-triazole-3-carboxamide], the IC50 is reported as at most 100 nM.
`CC(C)(O)CCCOc1ccc(Cl)c(-c2ccnc(NC(=O)c3nnc(CC4CCCCC4)[nH]3)c2)c1` [Example 357, N-(4-(2-chloro-5-((4-hydroxy-4-methylpentyl)oxy)phenyl)pyridin-2-yl)-5-(cyclohexylmethyl)-4H-1,2,4-triazole-3-carboxamide] was tested, and the IC50 was at most 100 nM.
Compound `Cc1ccc(N(C)CCCO)cc1-c1ccnc(NC(=O)c2nnc(Cc3ccccc3)[nH]2)c1` [Example 57, 5-benzyl-N-(4-(5-((3-hydroxypropyl)(methyl)amino)-2-methylphenyl)pyridin-2-yl)-4H-1,2,4-triazole-3-carboxamide] has an IC50 of 100 to 1000 nM.
Work on `Cc1ccc(OCCCC(C)(C)O)cc1-c1ccnc(NC(=O)c2nnc(CC(C)C)[nH]2)c1` [Example 169, N-(4-(5-((4-hydroxy-4-methylpentyl)oxy)-2-methylphenyl)pyridin-2-yl)-5-isobutyl-4H-1,2,4-triazole-3-carboxamide] yielded an IC50 of at most 100 nM.
`Cc1cc(F)cc(Cc2nnc(C(=O)Nc3cc(-c4cc(OCCCC(C)(C)O)ccc4C)ccn3)[nH]2)c1` [Example 207, 5-(3-fluoro-5-methylbenzyl)-N-(4-(5-((4-hydroxy-4-methylpentyl)oxy)-2-methylphenyl)pyridin-2-yl)-4H-1,2,4-triazole-3-carboxamide] showed an IC50 of 100 to 1000 nM.
`Cc1ccc(OC2CCC2)cc1-c1ccnc(NC(=O)c2nnc(Cc3ccccc3)[nH]2)c1` [Example 156, 5-benzyl-N-(4-(5-cyclobutoxy-2-methylphenyl)pyridin-2-yl)-4H-1,2,4-triazole-3-carboxamide] gave an IC50 of 100 to 1000 nM.
For `CC(C)(O)CCCOc1cc(F)c(Cl)c(-c2ccnc(NC(=O)c3nnc(Cc4ccccc4F)[nH]3)c2)c1` [Example 408, N-(4-(2-chloro-3-fluoro-5-((4-hydroxy-4-methylpentyl)oxy)phenyl)pyridin-2-yl)-5-(2-fluorobenzyl)-4H-1,2,4-triazole-3-carboxamide], the IC50 was over 10000 nM.
Work on `Cc1ccc(OCC(C)(C)O)cc1-c1ccnc(NC(=O)c2nnc(CC3CCCC3)[nH]2)c1` [Example 118, 5-(cyclopentylmethyl)-N-(4-(5-(2-hydroxyl-2-methylpropoxy)-2-methylphenyl)pyridin-2-yl)-4H-1,2,4-triazole-3-carboxamide] yielded an IC50 of at most 100 nM.
`COc1ccc(C)c(-c2ccnc(NC(=O)c3nnc(CC4CCCCC4)[nH]3)c2)c1` [Example 103, 5-(cyclohexylmethyl)-N-(4-(5-methoxy-2-methylphenyl)pyridin-2-yl)-4H-1,2,4-triazole-3-carboxamide] showed an IC50 of 100 to 1000 nM.
Work on `Cc1ccc(OCCN2CCCCC2)cc1-c1ccnc(NC(=O)c2nnc(Cc3cc(F)ccc3F)[nH]2)c1` [Example 231, 5-(2,5-difluorobenzyl)-N-(4-(2-methyl-5-(2-(piperidin-1-yl)ethoxy)phenyl)pyridin-2-yl)-4H-1,2,4-triazole-3-carboxamide] yielded an IC50 of 100 to 1000 nM.
